Laboratory results as given in the supplement of paper PMC10307832.

What follows are cell lines tested with CC1(C)CCC(CN2CCN(c3ccc(C(=O)NS(=O)(=O)c4ccc(NCC5CCOCC5)c([N+](=O)[O-])c4)c(Oc4cnc5[nH]ccc5c4)c3)CC2)=C(c2ccc(Cl)cc2)C1 [Venetoclax] + Nc1nc2[nH]cc(CCc3ccc(C(=O)N[C@@H](CCC(=O)O)C(=O)O)cc3)c2c(=O)[nH]1 [Pemetrexed] (partner 0.2 µM) (assay: relative viability (nuclei count vs DMSO), 5 days (fraction); higher = more cells survive). Details: first compound 0.01 µM.
Outline: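 Dosing by pin tool came one day after lung cancer cell lines were seeded in 1536-well plates, using either one drug or a fixed anchor-drug dose plus five library-drug doses (not always all listed) in √10 steps. After 5 days, nuclei were counted on 4× images. Relative viability is treated-well nuclei count divided by vehicle-well nuclei count, and values are medians of duplicate plates.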

BEN was tested. Which relative viability did it give?
The relative viability was 0.811.

With HCC-15 as the cell line, how does the relative viability read?
The relative viability was 0.24.

For HCC-827, which relative viability is on record?
Its relative viability is 0.239.

For NCI-H460, which relative viability is on record?
Its relative viability is 0.062.

How did the relative viability turn out when LU99A was run?
Its relative viability is 0.177.

For NCI-H2085, which relative viability is on record?
The relative viability was 0.756.

Which relative viability does the source give for A-427 here?
The relative viability was 0.988.

How did the relative viability turn out when NCI-H520 was run?
The relative viability was 0.781.

For NCI-H838, which relative viability is on record?
The relative viability was 0.246.

Which relative viability does the source give for NCI-H596 here?
Its relative viability is 0.473.

For NCI-H3122, which relative viability is on record?
Its relative viability is 0.179.

With 201T as the cell line, how does the relative viability read?
The relative viability was 0.283.

NCI-H1993 was tested. Which relative viability did it give?
Its relative viability is 0.565.

HOP-62 was tested. Which relative viability did it give?
The relative viability was 0.356.

Which relative viability does the source give for NCI-H1355 here?
The relative viability was 1.02.

For NCI-H2405, which relative viability is on record?
Its relative viability is 0.98.

NCI-H1437 was tested. Which relative viability did it give?
Its relative viability is 0.309.

With NCI-H661 as the cell line, how does the relative viability read?
Its relative viability is 0.933.

How did the relative viability turn out when CAL-12T was run?
Its relative viability is 0.965.

For H3255, which relative viability is on record?
Its relative viability is 0.584.

Which relative viability does the source give for NCI-H2347 here?
The relative viability was 0.486.

With NCI-H1975 as the cell line, how does the relative viability read?
Its relative viability is 0.261.

Which relative viability does the source give for NCI-H441 here?
Its relative viability is 0.274.

NCI-H1650 was tested. Which relative viability did it give?
The relative viability was 0.343.

With NCI-H1915 as the cell line, how does the relative viability read?
The relative viability was 0.405.

Which relative viability does the source give for NCI-H2087 here?
The relative viability was 0.7.

Which relative viability does the source give for HCC-366 here?
Its relative viability is 0.16.

How did the relative viability turn out when RERF-LC-KJ was run?
Its relative viability is 0.473.

For EKVX, which relative viability is on record?
The relative viability was 0.471.

LCLC-103H was tested. Which relative viability did it give?
The relative viability was 0.447.

How did the relative viability turn out when NCI-H1651 was run?
The relative viability was 0.628.

For NCI-H2009, which relative viability is on record?
The relative viability was 0.989.

With SW 1573 as the cell line, how does the relative viability read?
The relative viability was 0.784.

How did the relative viability turn out when SK-LU-1 was run?
The relative viability was 0.97.

Same assay, conditions: first compound 0.03162 µM

BEN was tested. Which relative viability did it give?
Its relative viability is 0.826.

Which relative viability does the source give for HCC-15 here?
The relative viability was 0.236.

With HCC-827 as the cell line, how does the relative viability read?
Its relative viability is 0.289.

How did the relative viability turn out when NCI-H460 was run?
The relative viability was 0.0571.

LU99A was tested. Which relative viability did it give?
The relative viability was 0.239.

With NCI-H2085 as the cell line, how does the relative viability read?
Its relative viability is 0.948.

A-427 was tested. Which relative viability did it give?
The relative viability was 0.967.

How did the relative viability turn out when NCI-H520 was run?
Its relative viability is 0.73.

For NCI-H838, which relative viability is on record?
The relative viability was 0.261.

Which relative viability does the source give for NCI-H596 here?
The relative viability was 0.495.

With NCI-H3122 as the cell line, how does the relative viability read?
Its relative viability is 0.2.

How did the relative viability turn out when 201T was run?
Its relative viability is 0.309.

How did the relative viability turn out when NCI-H1993 was run?
Its relative viability is 0.579.

HOP-62 was tested. Which relative viability did it give?
The relative viability was 0.335.

For NCI-H1355, which relative viability is on record?
Its relative viability is 1.08.

How did the relative viability turn out when NCI-H2405 was run?
The relative viability was 1.16.

For NCI-H1437, which relative viability is on record?
Its relative viability is 0.316.

Which relative viability does the source give for NCI-H661 here?
The relative viability was 0.922.

For CAL-12T, which relative viability is on record?
Its relative viability is 1.23.

With H3255 as the cell line, how does the relative viability read?
The relative viability was 0.615.

Which relative viability does the source give for NCI-H2347 here?
Its relative viability is 0.425.

Which relative viability does the source give for NCI-H1975 here?
Its relative viability is 0.279.

NCI-H441 was tested. Which relative viability did it give?
The relative viability was 0.271.

Which relative viability does the source give for NCI-H1650 here?
The relative viability was 0.361.

For NCI-H1915, which relative viability is on record?
Its relative viability is 0.499.

With NCI-H2087 as the cell line, how does the relative viability read?
The relative viability was 0.65.

For HCC-366, which relative viability is on record?
Its relative viability is 0.16.

RERF-LC-KJ was tested. Which relative viability did it give?
Its relative viability is 0.487.

EKVX was tested. Which relative viability did it give?
Its relative viability is 0.402.

How did the relative viability turn out when LCLC-103H was run?
Its relative viability is 0.432.

For NCI-H1651, which relative viability is on record?
The relative viability was 0.674.

Which relative viability does the source give for NCI-H2009 here?
The relative viability was 1.04.

How did the relative viability turn out when SW 1573 was run?
The relative viability was 0.808.

SK-LU-1 was tested. Which relative viability did it give?
The relative viability was 1.05.

Same assay, conditions: first compound 0.1 µM

BEN was tested. Which relative viability did it give?
The relative viability was 0.712.

How did the relative viability turn out when HCC-15 was run?
Its relative viability is 0.217.

With HCC-827 as the cell line, how does the relative viability read?
Its relative viability is 0.25.

Which relative viability does the source give for NCI-H460 here?
The relative viability was 0.0565.

How did the relative viability turn out when LU99A was run?
The relative viability was 0.163.

How did the relative viability turn out when NCI-H2085 was run?
Its relative viability is 0.86.

Which relative viability does the source give for A-427 here?
The relative viability was 1.03.

Which relative viability does the source give for NCI-H838 here?
The relative viability was 0.264.

With NCI-H596 as the cell line, how does the relative viability read?
Its relative viability is 0.461.

Which relative viability does the source give for NCI-H3122 here?
The relative viability was 0.199.

Which relative viability does the source give for 201T here?
Its relative viability is 0.33.

NCI-H1993 was tested. Which relative viability did it give?
Its relative viability is 0.599.

With HOP-62 as the cell line, how does the relative viability read?
Its relative viability is 0.287.

For NCI-H1355, which relative viability is on record?
Its relative viability is 1.01.

NCI-H2405 was tested. Which relative viability did it give?
Its relative viability is 0.979.

For NCI-H1437, which relative viability is on record?
The relative viability was 0.328.

How did the relative viability turn out when NCI-H661 was run?
Its relative viability is 0.861.

How did the relative viability turn out when CAL-12T was run?
Its relative viability is 1.14.

With H3255 as the cell line, how does the relative viability read?
The relative viability was 0.526.

How did the relative viability turn out when NCI-H2347 was run?
The relative viability was 0.437.

Which relative viability does the source give for NCI-H1975 here?
The relative viability was 0.276.

How did the relative viability turn out when NCI-H441 was run?
Its relative viability is 0.243.

For NCI-H1650, which relative viability is on record?
The relative viability was 0.405.

NCI-H1915 was tested. Which relative viability did it give?
The relative viability was 0.484.

With NCI-H2087 as the cell line, how does the relative viability read?
Its relative viability is 0.785.

How did the relative viability turn out when HCC-366 was run?
Its relative viability is 0.172.

RERF-LC-KJ was tested. Which relative viability did it give?
Its relative viability is 0.45.

For EKVX, which relative viability is on record?
Its relative viability is 0.351.

LCLC-103H was tested. Which relative viability did it give?
The relative viability was 0.448.

With NCI-H1651 as the cell line, how does the relative viability read?
Its relative viability is 0.561.

How did the relative viability turn out when NCI-H2009 was run?
Its relative viability is 1.05.

For SW 1573, which relative viability is on record?
Its relative viability is 0.784.

With SK-LU-1 as the cell line, how does the relative viability read?
The relative viability was 1.03.

Same assay, conditions: first compound 0.3162 µM

With BEN as the cell line, how does the relative viability read?
The relative viability was 0.855.

HCC-15 was tested. Which relative viability did it give?
The relative viability was 0.217.

With HCC-827 as the cell line, how does the relative viability read?
Its relative viability is 0.269.

Which relative viability does the source give for NCI-H460 here?
The relative viability was 0.0577.

LU99A was tested. Which relative viability did it give?
Its relative viability is 0.172.

Which relative viability does the source give for NCI-H2085 here?
Its relative viability is 0.823.

How did the relative viability turn out when A-427 was run?
Its relative viability is 1.04.

For NCI-H520, which relative viability is on record?
The relative viability was 0.626.

Which relative viability does the source give for NCI-H838 here?
Its relative viability is 0.234.

How did the relative viability turn out when NCI-H596 was run?
Its relative viability is 0.488.

Which relative viability does the source give for NCI-H3122 here?
Its relative viability is 0.188.

201T was tested. Which relative viability did it give?
Its relative viability is 0.329.

Which relative viability does the source give for NCI-H1993 here?
Its relative viability is 0.57.

For HOP-62, which relative viability is on record?
The relative viability was 0.313.

NCI-H1355 was tested. Which relative viability did it give?
The relative viability was 1.08.

For NCI-H2405, which relative viability is on record?
The relative viability was 1.06.

How did the relative viability turn out when NCI-H1437 was run?
The relative viability was 0.309.

For NCI-H661, which relative viability is on record?
Its relative viability is 0.897.

Which relative viability does the source give for CAL-12T here?
The relative viability was 1.22.

H3255 was tested. Which relative viability did it give?
The relative viability was 0.603.

Which relative viability does the source give for NCI-H2347 here?
The relative viability was 0.438.

NCI-H1975 was tested. Which relative viability did it give?
Its relative viability is 0.309.

With NCI-H441 as the cell line, how does the relative viability read?
The relative viability was 0.253.

Which relative viability does the source give for NCI-H1650 here?
Its relative viability is 0.431.

How did the relative viability turn out when NCI-H1915 was run?
The relative viability was 0.517.

For NCI-H2087, which relative viability is on record?
The relative viability was 0.707.

HCC-366 was tested. Which relative viability did it give?
The relative viability was 0.186.

For RERF-LC-KJ, which relative viability is on record?
Its relative viability is 0.438.

EKVX was tested. Which relative viability did it give?
The relative viability was 0.427.

For LCLC-103H, which relative viability is on record?
The relative viability was 0.43.

NCI-H1651 was tested. Which relative viability did it give?
The relative viability was 0.529.

Which relative viability does the source give for NCI-H2009 here?
The relative viability was 1.

Which relative viability does the source give for SW 1573 here?
The relative viability was 0.843.

For SK-LU-1, which relative viability is on record?
The relative viability was 0.966.

Same assay, conditions: first compound 1 µM

For BEN, which relative viability is on record?
The relative viability was 0.769.

For HCC-15, which relative viability is on record?
The relative viability was 0.201.

For HCC-827, which relative viability is on record?
Its relative viability is 0.28.

Which relative viability does the source give for NCI-H460 here?
The relative viability was 0.064.

With LU99A as the cell line, how does the relative viability read?
The relative viability was 0.178.

NCI-H2085 was tested. Which relative viability did it give?
The relative viability was 0.798.

Which relative viability does the source give for A-427 here?
The relative viability was 0.978.

Which relative viability does the source give for NCI-H520 here?
The relative viability was 0.646.

NCI-H838 was tested. Which relative viability did it give?
Its relative viability is 0.24.
